Test results: the supplement of paper PMC10307832

Legend:
Assay in all cases: relative viability (nuclei count vs DMSO), 5 days (fraction); higher = more cells survive
201T = test system: 201T
In short: (§1)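 A single step with final 0.05% Triton X-100, 1% formaldehyde and 1 ug/ml Hoechst fixed the cells and stained nuclei 5 days after treatment. Lung cancer cell lines in 1536-well plates had been treated by pin tool the day after seeding with one drug alone or a fixed anchor-drug dose plus five library-drug doses (not always all listed) in √10 steps, and nuclei were counted on 4× images. Relative viability is the ratio of nuclei in treated wells to nuclei in vehicle wells, taken as the median of duplicate plates.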

ABC-1 = test system: ABC-1
In short: as §1

CAL-12T = test system: CAL-12T
In short: as §1

COR-L23 = test system: COR-L23
In short: as §1

ChaGo-K-1 = test system: ChaGo-K-1
In short: as §1

HCC-44 = test system: HCC-44
In short: as §1

HOP-62 = test system: HOP-62
In short: as §1

LC-2-ad = test system: LC-2-ad
In short: as §1

LCLC-103H = test system: LCLC-103H
In short: as §1

NCI-H1355 = test system: NCI-H1355
In short: as §1

NCI-H1395 = test system: NCI-H1395
In short: as §1

NCI-H1651 = test system: NCI-H1651
In short: as §1

NCI-H1666 = test system: NCI-H1666
In short: as §1

NCI-H1993 = test system: NCI-H1993
In short: as §1

NCI-H2085 = test system: NCI-H2085
In short: as §1

NCI-H2170 = test system: NCI-H2170
In short: as §1

NCI-H2228 = test system: NCI-H2228
In short: as §1

NCI-H2342 = test system: NCI-H2342
In short: as §1

NCI-H2347 = test system: NCI-H2347
In short: as §1

NCI-H23 = test system: NCI-H23
In short: as §1

NCI-H322M = test system: NCI-H322M
In short: as §1

NCI-H520 = test system: NCI-H520
In short: as §1

NCI-H647 = test system: NCI-H647
In short: as §1

NCI-H661 = test system: NCI-H661
In short: as §1

NCI-H838 = test system: NCI-H838
In short: as §1

Work on `CCCCCCCCCCCC1=C(O)C(=O)C=C(O)C1=O` [Embelin] + COc1cccc2cc(-c3nc([C@H]4CC[C@H](C(=O)O)CC4)n4ncnc(N)c34)[nH]c12 [OSI-027] (partner 0.5 µM) yielded a relative viability (201T; first compound 0.08 µM) of 0.72, a relative viability (201T; first compound 0.8 µM) of 0.883 and a relative viability (201T; first compound 2.53 µM) of 0.746. For the same compound, the relative viability (201T; first compound 8 µM) was 0.83, the relative viability (ABC-1; first compound 0.08 µM) was 0.58 and the relative viability (ABC-1; first compound 0.8 µM) was 0.646. For the same compound, the relative viability (ABC-1; first compound 2.53 µM) was 0.472, the relative viability (ABC-1; first compound 8 µM) was 0.552 and the relative viability (CAL-12T; first compound 0.08 µM) was 0.538. For the same compound, the relative viability (CAL-12T; first compound 0.8 µM) was 0.817, the relative viability (CAL-12T; first compound 2.53 µM) was 0.513 and the relative viability (CAL-12T; first compound 8 µM) was 0.665. It also gave a relative viability (COR-L23; first compound 0.08 µM) of 0.756, a relative viability (COR-L23; first compound 0.8 µM) of 0.92 and a relative viability (COR-L23; first compound 2.53 µM) of 0.923. For the same compound, the relative viability (COR-L23; first compound 8 µM) was 0.921, the relative viability (ChaGo-K-1; first compound 0.08 µM) was 0.572 and the relative viability (ChaGo-K-1; first compound 0.8 µM) was 0.636. It also gave a relative viability (ChaGo-K-1; first compound 2.53 µM) of 0.699, a relative viability (ChaGo-K-1; first compound 8 µM) of 0.556 and a relative viability (HCC-44; first compound 0.08 µM) of 0.481. It also gave a relative viability (HCC-44; first compound 0.8 µM) of 0.479, a relative viability (HCC-44; first compound 2.53 µM) of 0.344 and a relative viability (HCC-44; first compound 8 µM) of 0.323. The relative viability (HOP-62; first compound 0.08 µM) was 0.88, the relative viability (HOP-62; first compound 0.8 µM) was 0.922 and the relative viability (HOP-62; first compound 2.53 µM) was 0.931. It also gave a relative viability (HOP-62; first compound 8 µM) of 0.812, a relative viability (LC-2-ad; first compound 0.08 µM) of 0.85 and a relative viability (LC-2-ad; first compound 0.8 µM) of 1.02. The relative viability (LC-2-ad; first compound 2.53 µM) was 0.97, the relative viability (LC-2-ad; first compound 8 µM) was 0.516 and the relative viability (LCLC-103H; first compound 0.08 µM) was 0.467. It also gave a relative viability (LCLC-103H; first compound 0.8 µM) of 0.492, a relative viability (LCLC-103H; first compound 2.53 µM) of 0.495 and a relative viability (LCLC-103H; first compound 8 µM) of 0.423. The relative viability (NCI-H1355; first compound 0.08 µM) was 0.445, the relative viability (NCI-H1355; first compound 0.8 µM) was 0.559 and the relative viability (NCI-H1355; first compound 2.53 µM) was 0.422. The relative viability (NCI-H1355; first compound 8 µM) was 0.279, the relative viability (NCI-H1395; first compound 0.08 µM) was 0.657 and the relative viability (NCI-H1395; first compound 0.8 µM) was 0.702. It also gave a relative viability (NCI-H1395; first compound 2.53 µM) of 0.615, a relative viability (NCI-H1395; first compound 8 µM) of 0.549 and a relative viability (NCI-H1651; first compound 0.08 µM) of 0.749. For the same compound, the relative viability (NCI-H1651; first compound 0.8 µM) was 0.677, the relative viability (NCI-H1651; first compound 2.53 µM) was 0.801 and the relative viability (NCI-H1651; first compound 8 µM) was 0.776. For the same compound, the relative viability (NCI-H1666; first compound 0.08 µM) was 0.798, the relative viability (NCI-H1666; first compound 0.8 µM) was 0.935 and the relative viability (NCI-H1666; first compound 2.53 µM) was 0.871. It also gave a relative viability (NCI-H1666; first compound 8 µM) of 0.865, a relative viability (NCI-H1993; first compound 0.08 µM) of 0.577 and a relative viability (NCI-H1993; first compound 0.8 µM) of 0.556. For the same compound, the relative viability (NCI-H1993; first compound 2.53 µM) was 0.606, the relative viability (NCI-H1993; first compound 8 µM) was 0.547 and the relative viability (NCI-H2085; first compound 0.08 µM) was 0.743. For the same compound, the relative viability (NCI-H2085; first compound 0.8 µM) was 0.84, the relative viability (NCI-H2085; first compound 2.53 µM) was 0.699 and the relative viability (NCI-H2085; first compound 8 µM) was 0.646. The relative viability (NCI-H2170; first compound 0.08 µM) was 0.796, the relative viability (NCI-H2170; first compound 0.8 µM) was 0.733 and the relative viability (NCI-H2170; first compound 2.53 µM) was 0.753. The relative viability (NCI-H2170; first compound 8 µM) was 0.737, the relative viability (NCI-H2228; first compound 0.08 µM) was 0.697 and the relative viability (NCI-H2228; first compound 0.8 µM) was 0.673. For the same compound, the relative viability (NCI-H2228; first compound 2.53 µM) was 0.726, the relative viability (NCI-H2228; first compound 8 µM) was 0.485 and the relative viability (NCI-H2342; first compound 0.08 µM) was 0.666. For the same compound, the relative viability (NCI-H2342; first compound 0.8 µM) was 0.59, the relative viability (NCI-H2342; first compound 2.53 µM) was 0.676 and the relative viability (NCI-H2342; first compound 8 µM) was 0.68. The relative viability (NCI-H2347; first compound 0.08 µM) was 0.428, the relative viability (NCI-H2347; first compound 0.8 µM) was 0.468 and the relative viability (NCI-H2347; first compound 2.53 µM) was 0.412. The relative viability (NCI-H2347; first compound 8 µM) was 0.527, the relative viability (NCI-H23; first compound 0.08 µM) was 0.695 and the relative viability (NCI-H23; first compound 0.8 µM) was 0.672. The relative viability (NCI-H23; first compound 2.53 µM) was 0.582, the relative viability (NCI-H23; first compound 8 µM) was 0.562 and the relative viability (NCI-H322M; first compound 0.08 µM) was 0.523. For the same compound, the relative viability (NCI-H322M; first compound 0.8 µM) was 0.744, the relative viability (NCI-H322M; first compound 2.53 µM) was 0.645 and the relative viability (NCI-H322M; first compound 8 µM) was 0.512. For the same compound, the relative viability (NCI-H520; first compound 0.08 µM) was 0.227, the relative viability (NCI-H520; first compound 0.8 µM) was 0.319 and the relative viability (NCI-H520; first compound 2.53 µM) was 0.401. For the same compound, the relative viability (NCI-H520; first compound 8 µM) was 0.238, the relative viability (NCI-H647; first compound 0.08 µM) was 0.684 and the relative viability (NCI-H647; first compound 0.8 µM) was 0.72. For the same compound, the relative viability (NCI-H647; first compound 2.53 µM) was 0.963, the relative viability (NCI-H647; first compound 8 µM) was 0.649 and the relative viability (NCI-H661; first compound 0.08 µM) was 0.763. For the same compound, the relative viability (NCI-H661; first compound 0.8 µM) was 0.784, the relative viability (NCI-H661; first compound 2.53 µM) was 0.8 and the relative viability (NCI-H661; first compound 8 µM) was 0.769. It also gave a relative viability (NCI-H838; first compound 0.08 µM) of 0.403, a relative viability (NCI-H838; first compound 0.8 µM) of 0.463 and a relative viability (NCI-H838; first compound 2.53 µM) of 0.38. The relative viability (NCI-H838; first compound 8 µM) was 0.436.
